Measurements from US20240398779A1, “USE OF FACTOR B INHIBITORS FOR THE TREATMENT OF AGE-RELATED MACULAR DEGENERATION” (priority 2021, published 2024).

Tests used:
[1] = 39-week dog toxicity study, safety margins for human exposure; conditions: 39-week dog study
[2] = Clinical phase 2 studies in PNH, IgAN, C3G; format: in vivo, human
[3] = First in human study in healthy volunteers, single ascending dose (SAD) and multiple ascending dose (MAD)
[4] = test system: AP activity; experiment: Wieslab AP assay in MAD study; format: in vivo, human; conditions: for inhibition of AP activity (Wieslab AP assay): sustained over 14 days of dosing
[5] = test system: Bb; experiment: Bb level in MAD study; format: in vivo, human; conditions: all iptacopan cohorts

Structure (SMILES): CCO[C@H]1CCN(Cc2c(OC)cc(C)c3[nH]ccc23)[C@H](c2ccc(C(=O)O)cc2)C1 [iptacopan]
- unbound systemic exposure (AUC-based) at 200 mg b.i.d. below lowest exposure with off-target testicular effects (LOAEL) [1]: 17.3 fold
- response rate ([2]; 200 mg b.i.d., all tested indications (PNH, IgAN, C3G)): highest response rate
- proteinuria ([2]; IgAN study Part 1, 200 mg b.i.d., over 90 days): reduce proteinuria
- deaths, SAEs, or AEs leading to study drug discontinuation ([3]; 102 healthy volunteers, SAD and MAD): No deaths, SAEs, or AEs leading to study drug discontinuation were observed
- permeability ([3]; first in human studies): good permeability
- solubility ([3]; first in human studies): high solubility
- inhibition of AP activity (Wieslab AP assay) ([4]; 100 mg b.i.d.): ≥ 80%
- inhibition of AP activity (Wieslab AP assay) ([4]; 200 mg b.i.d.): ≥ 80%
- suppression of AP activity (Wieslab AP assay) ([4]; MAD study, 10 to 200 mg b.i.d. for 2 weeks): dose dependent suppression of AP activity
- Bb level decrease from the baseline [5]: 30-40%
